Read-outs that look alike come from different tables or passages of the source.
What was measured:
Format in all cases: cell-based
[1] = test system: Pseudomonas fluorescens EL-2.1; assay: Agar-well diffusion, bactericidal activity; conditions: Pseudomonas fluorescens, EL2.1, 2 mM/L
Text: (§1) Plant pathogenic bacterial strains Micrococcus luteus B-109, Pectobacterium atrosepticum 1043, Pectobacterium carotovorum subsp. carotovorum MI, Pseudomonas fluorescens EL-2.1, and Xanthomonas campestris B-610 and the fungal strain Fusarium oxysporum IBPPM 543 were from the Collection of Rhizosphere Microorganisms, IBPPM RAS (WFCC no. 975, WDCM no. 1021) (CM IBPPM, http://collection.ibppm.ru). The pathogenic fungus Phytophthora cactorum VKM F-985, provided by the All-Russian Collection of Microorganisms (VKM) and deposited at the A.E. Favorsky Irkutsk Institute of Chemistry, SB RAS, was also used as a test organism. Bacteria M. luteus, P. carotovorum subsp. carotovorum, P. atrosepticum, and P. fluorescens were grown in a meat–peptone medium (BP), and X. campestris was grown in the medium with glucose, yeast extract, and calcium carbonate (GYCa). Solid media contained Bacto agar (18 g/L); pH was adjusted to 7.2–7.4. All bacterial cultures were grown at 28 °C. The mycelial cultures of F. oxysporum and P. cactorum were grown on a glucose–peptone–yeast (GPY) nutrient medium at 27 °C. For inoculum preparation, both fungal strains were initially grown on the agar GPY in Petri dishes and then transferred into the seed medium by punching out 5 mm of the agar plate culture with a self-designed cutter.
(§2) The antibacterial and antifungal activities of the compounds were explored using the agar-well diffusion method and the technique of mycelial radial growth inhibition. The method of diffusion in agar (measuring the diameter of growth inhibition zones) was used to determine the bactericidal activity. The 6-mm wells were made in agar medium (GYCa for Xanthomonas campestris or BP for other bacteria). Bacterial suspensions were distributed over the agar surface, and the tested compound’s solution (150 μL) was added to each well. The width of growth inhibition zones around the wells was determined after incubation for 36–40 h.

[2] = test system: Pectobacterium carotovorum subsp. carotovorum MI; assay: Agar-well diffusion, bactericidal activity; conditions: Pectobacterium carotovorum, 2 mM/L
Text: as §1, §2

Micrococcus luteus B-109 = assay: Agar-well diffusion, bactericidal activity; conditions: Micrococcus luteus
Text: as §1, §2

[3] = test system: Pectobacterium atrosepticum 1043; assay: Agar-well diffusion, bactericidal activity; conditions: Pectobacterium atrosepticum, 1043, 2 mM/L
Text: as §1, §2

[4] = test system: Fusarium oxysporum IBPPM 543; assay: Mycelial radial growth inhibition; conditions: Fusarium oxysporum; for inhibition of growth at 1 µM: 1 nmol/mL; for inhibition of growth at 1 µM / inhibition of growth at 5 µM / inhibition of growth at 30 µM / inhibition of growth at 40 µM: read-out: Inhibition value, I (%); for inhibition of growth at 5 µM: 5 nmol/mL; for inhibition of growth at 30 µM: 30 nmol/mL; for inhibition of growth at 40 µM: 40 nmol/mL
Text: as §1
(§3) For the fungicidal activity analysis, radial growth (colony diameters) of the fungi on a solid medium in the absence and in the presence of the compounds 5a–e and 7a–c solutions at various concentrations were compared. The method consisted of the following: A sterile GPY agar medium (20.0 mL), which was melted and then allowed to cool to approximately 60 °C, was mixed with the precisely measured volumes of the solutions under question and poured into a sterile Petri dish (90 mm i.d.). After the solidification of GPY agar, the media were inoculated by the fungus using 10-day-old cultures of F. oxysporum or P. cactorum. The inoculation was conducted by transferring a 5-mm (i.d.) GPY-agar block covered with mycelium to the center of the Petri dish, followed by incubation in a thermostat at 27 °C. The fungicidal effect was scored by the size of the mycelium colony on a Petri dish compared to the control without fungicidal admixtures to GPY agar. Each treatment was performed in at least four replicates in two independent experiments. The observation period ended when the control Petri dish was filled with mycelium (usually after 12 days). […] The solutions of the compounds were prepared with a concentration of 2 mmol/L (stock solution). For comparison, test compounds were also commonly applied as disinfecting agents, and antibiotics were used as a positive control.

[5] = test system: Phytophthora cactorum VKM F-985; assay: Mycelial radial growth inhibition; conditions: Phytophthora cactorum; for inhibition of growth at 3 µM: 3 nmol/mL; for inhibition of growth at 3 µM / inhibition of growth at 7 µM / inhibition of growth at 20 µM / inhibition of growth / inhibition of growth at 40 µM: read-out: Inhibition value, I (%); for inhibition of growth at 7 µM: 7 nmol/mL; for inhibition of growth at 20 µM: 20 nmol/mL; for inhibition of growth: 27 nmol/mL; for inhibition of growth at 40 µM: 40 nmol/mL
Text: as §1, §3

[6] = test system: five representative phytopathogens; assay: Agar-well diffusion, bactericidal activity over the panel of phytopathogens
Text: as §1, §2

[7] = test system: Xanthomonas campestris B-610; assay: Agar-well diffusion, bactericidal activity; conditions: Xanthomonas campestris
Method: Bacteria M. luteus, P. carotovorum subsp. carotovorum, P. atrosepticum, and P. fluorescens were grown in a meat–peptone medium (BP), and X. campestris was grown in the medium with glucose, yeast extract, and calcium carbonate (GYCa). Solid media contained Bacto agar (18 g/L); pH was adjusted to 7.2–7.4. […] For inoculum preparation, both fungal strains were initially grown on the agar GPY in Petri dishes and then transferred into the seed medium by punching out 5 mm of the agar plate culture with a self-designed cutter.
as §2

[8] = Table S3, read-out: Inhibition zone width (mm), not less
[9] = IBPPM543, 72 h, age of the fungus 3 days
[10] = IBPPM543, 120 h, age of the fungus 5 days
[11] = IBPPM543, 168 h, age of the fungus 7 days
[12] = IBPPM543, 216 h, age of the fungus 9 days
[13] = 120 h, age of the fungus 5 days
[14] = 168 h, age of the fungus 7 days
[15] = 216 h, age of the fungus 9 days

EC50 ([4]; IBPPM543, 120 h, day 5, read-out: EC50, µg/mL at Day 5, F. oxysporum): 7.25 µg/mL
EC50 ([5]; 120 h, day 5, read-out: EC50, µg/mL at Day 5, P. cactorum): 22.9 µg/mL
SMILES: Cc1ccc[n+](CC(=O)N/N=C2\C(=O)N(Cc3ccccc3F)c3ccccc32)c1C [Compound 7a]
zone of inhibition at 2000 µM ([1]; average of 3 experiments, read-out: width of the inhibition zone (mm), Ps. fluorescens): 5 mm
zone of inhibition at 2000 µM [1, 8]: ≥ 5 mm
zone of inhibition at 2000 µM ([2]; average of 3 experiments, read-out: width of the inhibition zone (mm), P. carotovorum subsp. carotovorum): 6 mm
zone of inhibition at 2000 µM [2, 8]: ≥ 6 mm
zone of inhibition at 2000 µM (Micrococcus luteus B-109; B109, 2 mM/L, average of 3 experiments, read-out: width of the inhibition zone (mm), M. luteus): 2 mm
zone of inhibition at 2000 µM (Micrococcus luteus B-109; B109, Table S3, 2 mM/L, read-out: Inhibition zone width (mm), not less): ≥ 2 mm
zone of inhibition at 2000 µM ([3]; average of 3 experiments, read-out: width of the inhibition zone (mm), P. atrosepticum): 3 mm
zone of inhibition at 2000 µM [3, 8]: ≥ 3 mm
inhibition of growth at 1 µM [4, 9]: 9%
inhibition of growth at 5 µM [4, 9]: 43%
inhibition of growth at 30 µM [4, 9]: 51%
inhibition of growth at 40 µM [4, 9]: 61%
inhibition of growth at 1 µM [4, 10]: 4%
inhibition of growth at 5 µM [4, 10]: 44%
inhibition of growth at 30 µM [4, 10]: 59%
inhibition of growth at 40 µM [4, 10]: 65%
inhibition of growth at 1 µM [4, 11]: 8%
inhibition of growth at 5 µM [4, 11]: 41%
inhibition of growth at 30 µM [4, 11]: 56%
inhibition of growth at 40 µM [4, 11]: 69%
inhibition of growth at 1 µM [4, 12]: 0%
inhibition of growth at 5 µM [4, 12]: 33%
inhibition of growth at 30 µM [4, 12]: 55%
inhibition of growth at 40 µM [4, 12]: 64%
inhibition of growth at 3 µM ([5]; 72 h, age of the fungus 3 days): 5%
inhibition of growth at 7 µM ([5]; 72 h, age of the fungus 3 days): 17%
inhibition of growth at 20 µM ([5]; 72 h, age of the fungus 3 days): 21%
inhibition of growth ([5]; 72 h, age of the fungus 3 days): 27%
inhibition of growth at 40 µM ([5]; 72 h, age of the fungus 3 days): 42%
inhibition of growth at 3 µM [5, 13]: 12%
inhibition of growth at 7 µM [5, 13]: 21%
inhibition of growth at 20 µM [5, 13]: 25%
inhibition of growth [5, 13]: 29%
inhibition of growth at 40 µM [5, 13]: 45%
inhibition of growth at 3 µM [5, 14]: 4%
inhibition of growth at 7 µM [5, 14]: 10%
inhibition of growth at 20 µM [5, 14]: 16%
inhibition of growth [5, 14]: 20%
inhibition of growth at 40 µM [5, 14]: 38%
inhibition of growth at 3 µM [5, 15]: 4%
inhibition of growth at 7 µM [5, 15]: 6%
inhibition of growth at 20 µM [5, 15]: 13%
inhibition of growth [5, 15]: 16%
inhibition of growth at 40 µM [5, 15]: 37%
zone of inhibition at 2000 µM ([6]; 36 h, 2 mM solutions, dependent on the test system used, read-out: inhibition zone width (mm), range over the test systems): 2 to 6 mm
bactericidal activity ([6]; Table S2): moderate bactericidal activity
inhibition zone ([6]; against P. carotovorum subsp. carotovorum MI, Ps. fluorescens EL-2.1 and X. campestris B-610): 5–6 mm
zone of inhibition at 2000 µM ([7]; B610, 2 mM/L, average of 3 experiments, read-out: width of the inhibition zone (mm), X. campestris): 5 mm
zone of inhibition at 2000 µM ([7]; B610, Table S3, 2 mM/L, read-out: Inhibition zone width (mm), not less): ≥ 5 mm

Source: paper PMC10607100, “Anticancer and Antiphytopathogenic Activity of Fluorinated Isatins and Their Water-Soluble Hydrazone Derivatives” (International Journal of Molecular Sciences, 2023)
